The assay has as its system Phage T4. Description: Phage T4 titer in liquid culture of E. coli followed by plaque assay on agar plates (PFU). It is filed as cell-based, bacteriophage T4 / E. coli 613. Conditions: compounds 0.02 mg/ml (each), vs untreated control, FIG. 1. On the procedure:
(§1) The number of phage particles (PFU) is given. Experiment were done in triplicate.
as §1
Nutritional Products Ltd (Kaiseraugst, Switzerland). All stock solutions were in 20 mg/ml DMSO. All compounds were used at a final concentration of 0.02 mg/ml.
E. coli was grown in liquid LB (lysogeny broth) medium. […] The number of phage particles (PFU) was determined by plating on agar.

Regarding `Cc1cc2nc3c(=O)[nH]c(=O)nc-3n(C[C@H](O)[C@H](O)[C@H](O)CO)c2cc1C` [Riboflavin], the “phage T4 PFU (number of phage particles)” value by setting is: (MOI of 0.01, 3 hours at 30° C.) “decreased”; (MOI of 100/1) “decreased”.

`CSc1ccc(C(=O)/C=C/c2cc(C)c(OC(C)(C)C(=O)O)c(C)c2)cc1` [elafibranor, Elafibranor]: the “phage T4 PFU (number of phage particles)” value reads like this: (MOI of 0.01, 3 hours at 30° C.) “significantly increased”; (MOI of 100/1) “significantly increased”.
